Experimental data reported in ChEMBL document CHEMBL5126547, “Inhibition of the drug efflux activity of Ptch1 as a promising strategy to overcome chemotherapy resistance in cancer cells” (Eur J Med Chem, 2022).

Key:
[1] = target: T1, Protein patched homolog 1 (Homo sapiens) (UniProt Q13635); test: Inhibition of Ptch1 in human adrenocortical carcinoma cells assessed as fold increase doxorubicin cytotoxicity; format: cell-based; conditions: Adrenocortical carcinoma cell
T1 sequence (whole entry): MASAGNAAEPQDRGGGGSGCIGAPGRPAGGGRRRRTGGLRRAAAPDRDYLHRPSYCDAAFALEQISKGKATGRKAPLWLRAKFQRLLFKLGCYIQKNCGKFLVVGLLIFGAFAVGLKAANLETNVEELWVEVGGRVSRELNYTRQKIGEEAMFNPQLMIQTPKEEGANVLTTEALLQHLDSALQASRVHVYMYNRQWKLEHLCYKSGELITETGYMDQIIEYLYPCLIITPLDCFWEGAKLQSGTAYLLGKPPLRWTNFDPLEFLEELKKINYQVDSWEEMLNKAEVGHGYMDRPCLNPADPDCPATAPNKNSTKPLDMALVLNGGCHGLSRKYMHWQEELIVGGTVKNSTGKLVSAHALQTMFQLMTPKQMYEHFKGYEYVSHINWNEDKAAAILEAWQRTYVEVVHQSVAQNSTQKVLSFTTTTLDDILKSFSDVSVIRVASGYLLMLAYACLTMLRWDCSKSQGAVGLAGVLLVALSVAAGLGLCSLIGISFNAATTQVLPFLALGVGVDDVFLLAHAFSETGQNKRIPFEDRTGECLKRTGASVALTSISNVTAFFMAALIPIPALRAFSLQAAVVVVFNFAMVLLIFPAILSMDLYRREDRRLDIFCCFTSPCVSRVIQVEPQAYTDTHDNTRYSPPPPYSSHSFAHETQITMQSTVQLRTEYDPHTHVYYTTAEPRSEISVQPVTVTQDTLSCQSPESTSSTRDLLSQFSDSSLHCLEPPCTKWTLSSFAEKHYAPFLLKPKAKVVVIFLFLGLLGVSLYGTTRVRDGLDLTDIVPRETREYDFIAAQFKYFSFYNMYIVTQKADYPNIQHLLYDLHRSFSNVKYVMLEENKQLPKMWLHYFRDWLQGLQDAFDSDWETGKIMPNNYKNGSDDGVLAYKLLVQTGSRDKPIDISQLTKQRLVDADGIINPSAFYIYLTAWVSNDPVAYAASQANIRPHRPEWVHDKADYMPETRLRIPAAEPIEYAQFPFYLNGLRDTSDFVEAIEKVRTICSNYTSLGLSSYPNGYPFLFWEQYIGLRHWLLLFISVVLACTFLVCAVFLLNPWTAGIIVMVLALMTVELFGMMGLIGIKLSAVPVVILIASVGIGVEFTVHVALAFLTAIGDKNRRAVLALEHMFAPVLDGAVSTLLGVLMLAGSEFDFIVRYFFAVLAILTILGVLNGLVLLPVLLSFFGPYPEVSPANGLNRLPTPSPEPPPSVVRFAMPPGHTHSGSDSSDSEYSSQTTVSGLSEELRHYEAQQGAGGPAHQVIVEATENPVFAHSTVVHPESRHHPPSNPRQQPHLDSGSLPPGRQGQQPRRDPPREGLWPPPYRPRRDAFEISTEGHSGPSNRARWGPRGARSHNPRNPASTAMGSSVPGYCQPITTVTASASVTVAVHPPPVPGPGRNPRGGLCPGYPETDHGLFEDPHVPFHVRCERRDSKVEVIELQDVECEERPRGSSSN

[2] = Lipophilicity, logD of compound; format: physicochemical; conditions: octanol/water
[3] = Metabolic stability in rat liver microsomes assessed as half life; format: ADME, Microsome
[4] = Inhibition of Ptch1 in vemurafenib-resistant human A-375 BRAF V600E cells assessed as fold increase in doxorubicin cytotoxicity
[5] = In vivo inhibition of Ptch1 in vemurafenib-resistant human A-375 BRAF V600E cells xenografted in Nu/Nu NMRI mouse assessed as fold increase in vemurafenib anticancer activity at 5 mg/kg, ip administered 5 days a week measured on after 23 days of first treatment relative to control; format: functional; conditions: time 5 day
[6] = target: T1, Protein patched homolog 1 (Homo sapiens); test: Inhibition of Ptch1 in human Melanoma cells assessed as fold increase vemurafenib cytotoxicity; format: cell-based; conditions: Melanoma cell
[7] = target: T1, Protein patched homolog 1 (Homo sapiens); test: Inhibition of Ptch1 in human Melanoma cells assessed as fold increase cisplatin cytotoxicity; format: cell-based; conditions: Melanoma cell
[8] = Inhibition of Ptch1 in vemurafenib-resistant human A-375 BRAF V600E cells assessed as fold increase in cisplatin cytotoxicity
[9] = target: T1, Protein patched homolog 1 (Homo sapiens); test: Inhibition of Ptch1 in human Melanoma cells assessed as fold increase doxorubicin cytotoxicity; format: cell-based; conditions: Melanoma cell

In the case of `COc1ccc(CCN2CCC(Nc3nc4ccccc4n3Cc3ccc(F)cc3)CC2)cc1` [ASTEMIZOLE], the fold change (FC) [1] is reported as 10, the logD [2] is reported as 2.9 and the half-life [3] is reported as over 60 min.

In the case of `CSc1ccc2c(c1)C(N1CCN(C)CC1)Cc1ccccc1S2` (stereo unspecified) [METITEPINE], the “fold change (FC)” value [4] is reported as 15, the “fold change (FC)” value [5] is reported as 10 and the fold change (FC) [6] is reported as 4. The fold change (FC) [1] was 6.6, the fold change (FC) [7] was 3 and the “fold change (FC)” value [8] was 3.6. It also gave a logD [2] of 3.5, a fold change (FC) [9] of 5.8 and a half-life [3] of 31 min.

In the case of `COc1cc(C)c(CC/C(C)=C/Cc2cc(O)ccc2O)c(C)c1C` [PANICEIN A HYDROQUINONE], the “fold change (FC)” value [4] is reported as 68, the “fold change (FC)” value [5] is reported as 10 and the fold change (FC) [1] is reported as 128. It also gave a half-life [3] of 1 min.
